Reference: PubChem BioAssay (NCI)
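Dose response: 5 concentrations. Exposure: 48 h. Format: 96-well plates. Endpoint: linear interpolation; highest concentration if not reached. The concentration for full growth arrest is given as TGI.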

Tests used:
Assay in all cases: NCI-60 cell line screen, 48 h
[1] = system: SN12C renal
[2] = system: SF-539 CNS
[3] = system: IGROV1 ovarian
[4] = system: UACC-62 melanoma
[5] = system: SNB-75 CNS
[6] = system: HL-60(TB) leukemia
[7] = system: TK-10 renal
[8] = system: NCI-H522 lung
[9] = system: HCT-116 colon
[10] = system: SK-MEL-5 melanoma
[11] = system: DU-145 prostate
[12] = system: RXF 393 renal
[13] = system: HS 578T breast
[14] = system: NCI/ADR-RES ovarian
[15] = system: T-47D breast
[16] = system: OVCAR-3 ovarian

Row | SMILES | TGI [1] | TGI [2] | TGI [3] | TGI [4] | TGI [5] | TGI [6] | TGI [7] | TGI [8] | TGI [9] | TGI [10] | TGI [11] | TGI [12] | TGI [13] | TGI [14] | TGI [15] | TGI [16]
1 | C=CCN1CCC(OC(=O)C(O)(C#CC)C2CCCC2)CC1 (configuration not stated) | > 100 µM | > 100 µM | > 100 µM | > 100 µM | > 100 µM | > 100 µM | > 100 µM | > 100 µM | > 100 µM | > 100 µM | > 100 µM | > 100 µM | > 100 µM | > 100 µM | > 100 µM | > 100 µM
2 | Cc1c(NC(=S)NN)c(=O)n(-c2ccccc2)n1C | > 100 µM | > 100 µM | > 100 µM | > 100 µM | > 100 µM | > 100 µM | > 100 µM | > 100 µM | > 100 µM | > 100 µM | > 100 µM | > 100 µM | > 100 µM | > 100 µM | > 100 µM | > 100 µM
3 | O=C(O)c1ccccc1NC(c1ccccc1)c1ccc2cccnc2c1O (configuration not stated) | > 51.4 µM | 22.1 µM | > 100 µM | > 50 µM | > 86.7 µM | 8.22 µM | 51.1 µM | 23.3 µM | > 64.2 µM | 24.5 µM | > 100 µM | 27.7 µM | > 68.1 µM | > 49.3 µM | 39.4 µM | 14.4 µM
4 | CC(=O)OC1=c2ccccc2=C(O)C2C1C=NN2C(C)=O (configuration not stated) | > 100 µM | > 100 µM | > 100 µM | > 100 µM | > 100 µM | > 100 µM | > 100 µM | > 100 µM | > 100 µM | > 100 µM | > 100 µM | > 100 µM | > 100 µM | > 100 µM | > 100 µM | > 100 µM
5 | Cc1c2c(c(C)n1-c1ccccc1)C(=O)N(CCCCN1CCN(c3ccccc3)CC1)C2=O | 43.9 µM | 26.5 µM | > 100 µM | 36.8 µM | > 100 µM | 17.2 µM | > 100 µM | 39.4 µM | 20.9 µM | 13.6 µM | > 100 µM | > 100 µM | > 100 µM | 83.9 µM | 28.8 µM | 88.5 µM
6 | COC(=O)CCc1cc(OC)c(O)c(C(Cc2ccc(OC)c(OC)c2)C(=O)OC)c1 (configuration not stated) | > 100 µM | > 100 µM | > 100 µM | > 100 µM | > 100 µM | > 100 µM | > 100 µM | > 100 µM | > 100 µM | > 100 µM | > 100 µM | > 100 µM | > 100 µM | > 100 µM | > 100 µM | > 100 µM
7 | N#Cc1c(N2CCCC2)nsc1NCc1ccccc1 | > 100 µM | > 100 µM | > 100 µM | > 100 µM | > 100 µM | > 100 µM | > 100 µM | > 100 µM | > 100 µM | > 100 µM | > 100 µM | > 100 µM | > 100 µM | > 100 µM | > 100 µM | > 100 µM
8 | NNC(=O)CSc1nc2ccc(I)cc2c(=O)n1Cc1ccccc1 | 48.6 µM | 52 µM | 69.3 µM | 40.4 µM | 50.4 µM | 61 µM | 38.7 µM | 30.7 µM | 43.2 µM | 38.5 µM | > 100 µM | 26.5 µM | 52.5 µM | > 100 µM | > 100 µM | 54.9 µM
9 | Cc1ccc(C2=Nc3cc(C)c(Cl)cc3S(=O)(=O)NN2)cc1 | > 100 µM | > 100 µM | > 100 µM | > 100 µM | > 100 µM | 90.7 µM | > 100 µM | > 100 µM | > 100 µM | > 100 µM | > 100 µM | > 100 µM | > 100 µM | > 100 µM | > 100 µM | > 100 µM
10 | O=C1c2c(Cl)c(Cl)c(Cl)c(Cl)c2C(=O)N1CCN(c1c(Cl)ssc1=O)c1c(Cl)ssc1=O | 47.7 µM | 35.4 µM | > 100 µM | 44.4 µM | > 100 µM | > 100 µM | 33.5 µM | 57.8 µM | 29.9 µM | > 100 µM | 36.7 µM | 34.4 µM | > 100 µM | > 100 µM | 44.5 µM | 36.6 µM
11 | CCOC(=O)CN1C(=O)c2c(c(C)n(-c3ccccc3)c2C)C1=O | > 100 µM | > 100 µM | > 100 µM | > 100 µM | > 100 µM | > 100 µM | > 100 µM | > 100 µM | > 100 µM | > 100 µM | > 100 µM | > 100 µM | > 100 µM | > 100 µM | > 100 µM | > 100 µM
12 | CCC(C#N)(c1ccccc1)N(CCc1ccccc1)C(=O)c1ccccc1 (configuration not stated) | > 100 µM | 34.8 µM | > 100 µM | > 100 µM | 78.7 µM | > 100 µM | > 100 µM | > 100 µM | > 100 µM | > 100 µM | > 100 µM | 55.3 µM | 69.6 µM | > 100 µM | > 100 µM | > 100 µM
